In ChEMBL document CHEMBL1671789, “Evaluation of quinazoline analogues as glucocerebrosidase inhibitors with chaperone activity” (J Med Chem, 2011):
The source made the active and inactive calls. How the calls were made is not given here.

Tests used:
[1] = Inhibition of alpha-glucosidase
[2] = Inhibition of alpha-galactosidase
Further: test concentration or dose not given here.

SMILES | Activity [1] | Activity [2]
O=S(=O)(c1ccc(Br)cc1)N1CCN(c2nc(-c3cccs3)nc3ccccc23)CC1 | inactive | inactive
O=S(=O)(/C=C/c1ccccc1)N1CCN(c2nc(-c3ccccc3)nc3ccccc23)CC1 | inactive | inactive
CC1(C)CCc2cc(S(=O)(=O)N3CCN(c4nc(-c5cccs5)nc5ccccc45)CC3)ccc2O1 | inactive | inactive
Cc1ccc(S(=O)(=O)N2CCN(c3nc(-c4cscn4)nc4ccccc34)CC2)cc1 | inactive | inactive
COc1ccc(-c2nc(N3CCN(S(=O)(=O)c4ccc(C)cc4)CC3)c3ccccc3n2)cc1 | inactive | inactive
CC(=O)c1ccc(S(=O)(=O)N2CCN(c3nc(-c4cccs4)nc4ccccc34)CC2)cc1 | inactive | inactive
Cc1ccc(S(=O)(=O)N2CCN(c3nc(-c4cnccn4)nc4ccccc34)CC2)cc1 | inactive | inactive
O=S(=O)(c1ccsc1)N1CCN(c2nc(-c3cccs3)nc3ccccc23)CC1 | inactive | inactive
Fc1ccccc1N1CCN(c2nc(-c3cccs3)nc3ccccc23)CC1 | inactive | inactive
COc1ccc(N2CCN(c3nc(-c4cccs4)nc4ccccc34)CC2)cc1 | inactive | inactive
NS(=O)(=O)c1ccc(S(=O)(=O)N2CCN(c3nc(-c4ccccc4)nc4ccccc34)CC2)cc1 | inactive | inactive
O=S(=O)(c1ccc(Cl)cc1)N1CCN(c2nc(-c3cccs3)nc3ccccc23)CC1 | inactive | inactive
Cc1ccc(S(=O)(=O)C2CCN(c3nc(-c4cccs4)nc4ccccc34)CC2)cc1 | inactive | inactive
CCOC(=O)c1ccc(S(=O)(=O)N2CCN(c3nc(-c4cccs4)nc4ccccc34)CC2)cc1 | inactive | inactive
O=S(=O)(c1ccccc1F)N1CCN(c2nc(-c3cccs3)nc3ccccc23)CC1 | inactive | inactive
O=S(=O)(c1cnc2ccccc2c1)N1CCN(c2nc(-c3cccs3)nc3ccccc23)CC1 | inactive | inactive
O=S(=O)(c1cccc(Cl)c1)N1CCN(c2nc(-c3ccccc3)nc3ccccc23)CC1 | inactive | inactive
Cc1ccc(S(=O)(=O)N2CCN(c3nc(-c4cncs4)nc4ccccc34)CC2)cc1 | inactive | inactive
Oc1ccc(N2CCN(c3nc(-c4cccs4)nc4ccccc34)CC2)cc1 | inactive | inactive
O=S(=O)(c1ccc(F)cc1)N1CCN(c2nc(-c3cccs3)nc3ccccc23)CC1 | inactive | inactive
CCOC(=O)c1ccc(S(=O)(=O)N2CCN(c3nc(-c4ccccc4)nc4ccccc34)CC2)cc1 | inactive | inactive
CC(C)(C)c1ccc(S(=O)(=O)N2CCN(c3nc(-c4cccs4)nc4ccccc34)CC2)cc1 | inactive | inactive
O=S(=O)(c1cccc(Br)c1)N1CCN(c2nc(-c3cccs3)nc3ccccc23)CC1 | inactive | inactive

SMILES | Activity [1] | Activity [2]
Cc1ccc(S(=O)(=O)N2CCN(c3nc(-n4cnc5ccccc54)nc4ccccc34)CC2)cc1 | inactive | inactive
Cc1ccc(S(=O)(=O)N2CCN(c3nc(-c4cccnc4)nc4ccccc34)CC2)cc1 | inactive | inactive
COc1cccc(S(=O)(=O)N2CCN(c3nc(-c4cccs4)nc4ccccc34)CC2)c1 | inactive | inactive
N#Cc1ccccc1S(=O)(=O)N1CCN(c2nc(-c3cccs3)nc3ccccc23)CC1 | inactive | inactive
CC(=O)c1ccccc1S(=O)(=O)N1CCN(c2nc(-c3cccs3)nc3ccccc23)CC1 | inactive | inactive
O=S(=O)(c1ccc2ccccc2c1)N1CCN(c2nc(-c3ccccc3)nc3ccccc23)CC1 | inactive | inactive
O=S(=O)(c1ccc(F)cc1)N1CCN(c2nc(C3CC3)nc3ccccc23)CC1 | inactive | inactive
N#Cc1ccc(S(=O)(=O)N2CCN(c3nc(-c4cccs4)nc4ccccc34)CC2)cc1 | inactive | inactive
CC(C)(C)c1ccc(S(=O)(=O)N2CCN(c3nc(-c4ccccc4)nc4ccccc34)CC2)cc1 | inactive | inactive
O=S(=O)(c1ccc(C(F)(F)F)cc1)N1CCN(c2nc(-c3ccccc3)nc3ccccc23)CC1 | inactive | inactive
O=S(=O)(c1nccs1)N1CCN(c2nc(-c3cccs3)nc3ccccc23)CC1 | inactive | inactive
O=S(=O)(c1ccc2ncccc2c1)N1CCN(c2nc(-c3cccs3)nc3ccccc23)CC1 | inactive | inactive
CC(C)(C)c1cccc(S(=O)(=O)N2CCN(c3nc(-c4cccs4)nc4ccccc34)CC2)c1 | inactive | inactive
O=C(c1ccc2c(c1)OCCO2)N1CCN(c2nc(-c3cccs3)nc3ccccc23)CC1 | inactive | inactive
Cc1ccc(S(=O)(=O)N2CCN(c3ncnc4ccccc34)CC2)cc1 | inactive | inactive
CC(C)(C)C(=O)OCCNc1nc(-c2cccs2)nc2ccccc12 | inactive | inactive
O=S(=O)(/C=C/c1ccccc1)N1CCN(c2nc(-c3cccnc3)nc3ccccc23)CC1 | inactive | inactive
Cc1ccc(S(=O)(=O)N2CCN(c3nc(-c4cccs4)nc4ccccc34)CC2)c(C)c1 | inactive | inactive
O=S(=O)(c1ccc2c(c1)CCC2)N1CCN(c2nc(-c3ccccc3)nc3ccccc23)CC1 | inactive | inactive
O=S(=O)(c1ccc2c(c1)OCCO2)N1CCN(c2nc(-c3ccccc3)nc3ccccc23)CC1 | inactive | inactive
CCOC(=O)c1ccccc1S(=O)(=O)N1CCN(c2nc(-c3cccs3)nc3ccccc23)CC1 | inactive | inactive
O=S(=O)(c1ccccc1C(F)(F)F)N1CCN(c2nc(-c3cccs3)nc3ccccc23)CC1 | inactive | inactive
CC(C)S(=O)(=O)N1CCN(c2nc(-c3cccs3)nc3ccccc23)CC1 | inactive | inactive

SMILES | Activity [1] | Activity [2]
CC(=O)c1nc(N2CCN(S(=O)(=O)c3ccc(C)cc3)CC2)c2ccccc2n1 | inactive | inactive
O=S(=O)(N1CCN(c2nc(-c3cccs3)nc3ccccc23)CC1)C(F)(F)F | inactive | inactive
O=S(=O)(c1cccc(C(F)(F)F)c1)N1CCN(c2nc(-c3ccccc3)nc3ccccc23)CC1 | inactive | inactive
Cc1ccc(S(=O)(=O)N2CCN(c3nc(-c4ccc(CN5CCNCC5)s4)nc4ccccc34)CC2)cc1 | inactive | inactive
O=S(=O)(c1ccc2c(c1)OCO2)N1CCN(c2nc(-c3cccs3)nc3ccccc23)CC1 | inactive | inactive
O=[N+]([O-])c1cccc(S(=O)(=O)N2CCN(c3nc(-c4ccccc4)nc4ccccc34)CC2)c1 | inactive | inactive
O=S(=O)(NCCNc1nc(-c2ccco2)nc2ccccc12)c1ccccc1 | inactive | inactive
Cc1ccccc1S(=O)(=O)N1CCN(c2nc(-c3cccs3)nc3ccccc23)CC1 | inactive | inactive
N#Cc1ccc(S(=O)(=O)N2CCN(c3nc(-c4ccccc4)nc4ccccc34)CC2)cc1 | inactive | inactive
CC(C)(C)OC(=O)N1CCN(c2nc(-c3cccs3)nc3ccccc23)CC1 | inactive | inactive
Cc1ccc(S(=O)(=O)N(C)CCCN(C)c2nc(-c3cccs3)nc3ccccc23)cc1 | inactive | inactive
O=C(c1ccccc1)N1CCN(c2nc(-c3cccs3)nc3ccccc23)CC1 | inactive | inactive
O=[N+]([O-])c1ccccc1S(=O)(=O)N1CCN(c2nc(-c3cccs3)nc3ccccc23)CC1 | inactive | inactive
COC(=O)c1nc(N2CCN(S(=O)(=O)c3ccc(C)cc3)CC2)c2ccccc2n1 | inactive | inactive
CC(=O)c1cccc(S(=O)(=O)N2CCN(c3nc(-c4cccs4)nc4ccccc34)CC2)c1 | inactive | inactive
COc1ccc(S(=O)(=O)N2CCN(c3nc(-c4cccs4)nc4ccccc34)CC2)cc1 | inactive | inactive
N#Cc1ccccc1S(=O)(=O)N1CCN(c2nc(-c3ccccc3)nc3ccccc23)CC1 | inactive | inactive
Cc1ccc(S(=O)(=O)N2CCN(c3nc(-c4ccc(C)s4)nc4ccccc34)CC2)cc1 | inactive | inactive
Cc1ccc(S(=O)(=O)N2CCN(c3nc(-c4cccs4)nc(C)c3C)CC2)cc1 | inactive | inactive
O=S(=O)(c1cccc(F)c1)N1CCN(c2nc(-c3cccs3)nc3ccccc23)CC1 | inactive | inactive
O=S(=O)(c1ccc2c(Cl)cccc2c1)N1CCN(c2nc(-c3cccs3)nc3ccccc23)CC1 | inactive | inactive
O=S(=O)(c1ccccc1Br)N1CCN(c2nc(-c3cccs3)nc3ccccc23)CC1 | inactive | inactive
O=S(=O)(c1ccc(Cl)cc1)N1CCN(c2nc(-c3ccccc3)nc3ccccc23)CC1 | inactive | inactive
